Like-named read-outs stand apart in the source and are kept apart here. Where a SMILES comes first, the peptide text is derived from it. [ ]: non-standard residue; d: D form. d2Thi = N[C@H](Cc1cccs1)C(=O)O; Nle = CCCC[C@H](N)C(=O)O
Assay: Pharmacokinetics in rats after intravenous bolus injection (systemic clearance)
Type: in vivo
Conditions: rat, plasma, adult male Sprague-Dawley rats, i.v. bolus, read-out: CL (ml/kg/min) Average
Method in brief: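 Systemic clearance from noncompartmental analysis as dose per kg over trapezoidal AUC extrapolated to infinity, mean and SD across animals. Plasma (K2EDTA) levels by LC/MS/MS after single IV jugular-vein bolus, 0.1-1.0 mg/kg, in 3-4 cannulated male Sprague-Dawley rats.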

[1] = 0.2 mg FB/kg, dose 0.20 mg FB/kg

clearance [1] [mL/kg/min] | clearance (0.1 mg FB/kg, dose 0.10 mg FB/kg) [mL/kg/min] | SMILES
0.48 |  | CCCC[C@H](NC(=O)[C@H](CCC(=O)O)NC(=O)[C@H](CC(=O)O)NC(=O)[C@H](CO)NC(=O)[C@H](Cc1ccccc1)NC(=O)[C@H](CO)NC(=O)CNC(=O)[C@H](CC(=O)O)NC(=O)CNC(=O)[C@@H](N)Cc1c[nH]cn1)C(=O)N[C@H](Cc1ccccc1)C(=O)N[C@H](C(=O)N[C@H](C(=O)N[C@@H](CC(C)C)C(=O)N[C@@H](CC(=O)O)C(=O)N[C@@H](Cc1ccc(O)cc1)C(=O)N[C@@H](CC(C)C)C(=O)N[C@@H](C)C(=O)N[C@@H](C)C(=O)N[C@@H](CCCNC(=N)N)C(=O)N[C@@H](CC(=O)O)C(=O)N[C@@H](Cc1ccccc1)C(=O)N[C@H](C(=O)N[C@@H](CC(N)=O)C(=O)N[C@@H](Cc1c[nH]c2ccccc12)C(=O)N[C@@H](CC(C)C)C(=O)N[C@H](C(=O)N[C@@H](CCC(N)=O)C(=O)N[C@H](C(=O)N[C@@H](CCCCN)C(N)=O)[C@@H](C)O)[C@@H](C)CC)[C@@H](C)CC)[C@@H](C)CC)[C@@H](C)O [Compound 49, [Gly2,Nle10,D-Phe11,Tyr16] hGLP-2 (1-30)-NH2] (H-HGDGSFSDE[Nle][dF]TILDYLAARDFINWLIQTK-NH2)
0.52 |  | CCCC[C@H](NC(=O)[C@H](CCC(=O)O)NC(=O)[C@H](CC(=O)O)NC(=O)[C@H](CO)NC(=O)[C@H](Cc1ccccc1)NC(=O)[C@H](CO)NC(=O)CNC(=O)[C@H](CC(=O)O)NC(=O)CNC(=O)[C@@H](N)Cc1c[nH]cn1)C(=O)N[C@H](Cc1cccs1)C(=O)N[C@H](C(=O)N[C@H](C(=O)N[C@@H](CC(C)C)C(=O)N[C@@H](CC(=O)O)C(=O)N[C@@H](Cc1ccc(O)cc1)C(=O)N[C@@H](CC(C)C)C(=O)N[C@@H](C)C(=O)N[C@@H](C)C(=O)N[C@@H](CCCNC(=N)N)C(=O)N[C@@H](CC(=O)O)C(=O)N[C@@H](Cc1ccccc1)C(=O)N[C@H](C(=O)N[C@@H](CC(N)=O)C(=O)N[C@@H](Cc1c[nH]c2ccccc12)C(=O)N[C@@H](CC(C)C)C(=O)N[C@H](C(=O)N[C@@H](CCC(N)=O)C(=O)N[C@H](C(=O)N[C@@H](CCCCN)C(N)=O)[C@@H](C)O)[C@@H](C)CC)[C@@H](C)CC)[C@@H](C)CC)[C@@H](C)O [Compound 50, [Gly2,Nle10,D-Thi11,Tyr16] hGLP-2 (1-30)-NH2] (H-HGDGSFSDE[Nle][d2Thi]TILDYLAARDFINWLIQTK-NH2)
0.27 | 0.2 | CCCC[C@H](NC(=O)[C@H](CCC(=O)O)NC(=O)[C@H](CC(=O)O)NC(=O)[C@H](CO)NC(=O)[C@H](Cc1ccccc1)NC(=O)[C@H](CO)NC(=O)CNC(=O)[C@H](CC(=O)O)NC(=O)CNC(=O)[C@@H](N)Cc1cnc[nH]1)C(=O)N[C@H](Cc1ccccc1)C(=O)N[C@H](C(=O)N[C@H](C(=O)N[C@@H](CC(C)C)C(=O)N[C@@H](CC(=O)O)C(=O)N[C@@H](CC(C)C)C(=O)N[C@@H](CC(C)C)C(=O)N[C@@H](C)C(=O)N[C@@H](C)C(=O)N[C@@H](CCCNC(=N)N)C(=O)N[C@@H](CC(=O)O)C(=O)N[C@@H](Cc1ccccc1)C(=O)N[C@H](C(=O)N[C@@H](CC(N)=O)C(=O)N[C@@H](Cc1c[nH]c2ccccc12)C(=O)N[C@@H](CC(C)C)C(=O)N[C@H](C(=O)N[C@@H](CCC(N)=O)C(=O)N[C@H](C(=O)N[C@@H](CCCCN)C(=O)N[C@H](C(=O)N[C@H](C(=O)N[C@@H](CC(=O)O)C(N)=O)[C@@H](C)O)[C@@H](C)CC)[C@@H](C)O)[C@@H](C)CC)[C@@H](C)CC)[C@@H](C)CC)[C@@H](C)O [Compound 51, [Gly2,Nle10,D-Phe11,Leu16] hGLP-2(1-33)-NH2] (H-HGDGSFSDE[Nle][dF]TILDLLAARDFINWLIQTKITD-NH2)

Source: US8580918B2, “Peptidic GLP-2 agonists” (Ferring B.V., priority 2009, dated 2013)
